The values below come from patent US8309552B2, “Immunomodulating heterocyclic compounds” (Medigene AG, priority 2003, dated 2012).

The target of this assay is T1, CD80-CD28 interaction (Homo sapiens, UniProt P33681).
T1 sequence (P33681 35-242 limits assumed): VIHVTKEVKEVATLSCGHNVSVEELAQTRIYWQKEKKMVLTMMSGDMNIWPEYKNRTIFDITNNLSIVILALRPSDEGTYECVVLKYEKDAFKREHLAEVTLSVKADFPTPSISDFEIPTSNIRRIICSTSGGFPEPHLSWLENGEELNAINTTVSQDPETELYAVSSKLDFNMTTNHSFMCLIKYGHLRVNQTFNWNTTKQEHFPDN
Description: Homogenous Time Resolved Fluorescence (HTRF) assay, cell free. It counts as binding. The note with it: cell free HTRF assay; concentration series 100 μM-1.7 nM; 4 hours at room temperature; read-out: Activity (EC50 in the HTRF assay). The procedure, abridged:
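Europium and APC labels were linked through antibodies to CD28 and CD80 fusion proteins. Compounds were tested at 100 μM-1.7 nM for 4 h at room temperature in 50 mM Tris-HCl, 150 mM NaCl pH7.8, 0.1% BSA. Emission read at 665 and 615 nm (excitation 340 nm); non-specific signal measured with C215 Fab in place of CD80; EC50 reported in bands.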
(In general: In TR-FRET formats the signal depends on donor and acceptor labels being close together.)
As usually defined, the EC50 is the midpoint of the concentration-response curve. For `CCCCCNC(=O)c1ccc(-n2[nH]c3c(nnc4ccccc43)c2=O)cc1` [Example 251], the 50% effective concentration (EC50) is over 10 µM.

Take `O=C(NC1CCc2ccccc21)c1ccc(-n2[nH]c3c(nnc4ccccc43)c2=O)cc1` (stereo not shown) [Example 252]: the concentration giving a half-maximal response (EC50) was over 10 µM.

For `O=C(NCCSCc1c(F)cccc1Cl)c1ccc(-n2[nH]c3c(nnc4ccccc43)c2=O)cc1` [Example 254], the concentration giving a half-maximal response (EC50) is over 10 µM.

For `O=C(NCCc1cccs1)c1ccc(-n2[nH]c3c(nnc4ccccc43)c2=O)cc1` [Example 255], the concentration giving a half-maximal response (EC50) was over 10 µM.

`O=C(NCC1CCNCC1)c1ccc(-n2[nH]c3c(nnc4ccccc43)c2=O)cc1` [Example 256]: the half-maximal effective concentration (EC50) was 1 to 10 µM.

Turning to `CCC(C)NC(=O)c1ccc(-n2[nH]c3c(nnc4ccccc43)c2=O)cc1` (stereo not shown) [Example 258], the concentration giving a half-maximal response (EC50) was in the range of 1 to 10 µM.

As for `O=C(NCCN1CCCC1)c1ccc(-n2[nH]c3c(nnc4ccccc43)c2=O)cc1` [Example 259], the EC50 is under 1 µM.

Consider `CC(C)CNC(=O)c1ccc(-n2[nH]c3c(nnc4ccccc43)c2=O)cc1` [Example 260], for which the concentration giving a half-maximal response (EC50) was in the range of 1 to 10 µM.

`CC(NC(=O)Nc1ccc(-n2[nH]c3c(nnc4ccccc43)c2=O)cc1)C1CCCCC1` (stereo not shown) [Example 261]: the concentration giving a half-maximal response (EC50) was over 10 µM.

Regarding `CC(NC(=O)Nc1ccc(-n2[nH]c3c(nnc4ccccc43)c2=O)cc1)C(C)(C)C` (stereo not shown) [Example 262], the EC50 is over 10 µM.

Turning to `CC(C)C(C)NC(=O)Nc1ccc(-n2[nH]c3c(nnc4ccccc43)c2=O)cc1` (stereo not shown) [Example 263], the EC50 is 1 to 10 µM.

Take `CC(C)(C)OC(=O)N1CCC(CNC(=O)Nc2ccc(-n3[nH]c4c(nnc5ccccc54)c3=O)cc2)CC1` [Example 264]: the 50% effective concentration (EC50) is over 10 µM.

In the case of `CN(CCNC(=O)Nc1ccc(-n2[nH]c3c(nnc4ccccc43)c2=O)cc1)C(=O)OC(C)(C)C` [Example 265], the EC50 was over 10 µM.

In the case of `O=C(NCCCCNC(=O)c1ccc(-n2[nH]c3c(nnc4ccccc43)c2=O)cc1)OCc1ccccc1` [Example 266], the EC50 is under 1 µM.

As to `O=C(NC1CONC1=O)c1ccc(-n2[nH]c3c(nnc4ccccc43)c2=O)cc1` (stereo not shown) [Example 267], the EC50 is 1 to 10 µM.

On to `O=C(NCCc1c[nH]c2ccccc12)c1ccc(-n2[nH]c3c(nnc4ccccc43)c2=O)cc1` [Example 268], for which the EC50 was in the range of 1 to 10 µM.

Turning to `CCCNCCNC(=O)c1ccc(-n2[nH]c3c(nnc4ccccc43)c2=O)cc1` [Example 269], the EC50 was over 10 µM.

As to `O=C(NCCc1ccccc1)c1ccc(-n2[nH]c3c(nnc4ccccc43)c2=O)cc1` [Example 270], the EC50 was over 10 µM.

As to `NCCCCCCNC(=O)c1ccc(-n2[nH]c3c(nnc4ccccc43)c2=O)cc1` [Example 271], the EC50 was under 1 µM.

Regarding `O=C(NCCC1=CCCCC1)c1ccc(-n2[nH]c3c(nnc4ccccc43)c2=O)cc1` [Example 272], the EC50 is over 10 µM.

On to `CCCCCCCCCCCCOCCCNC(=O)c1ccc(-n2[nH]c3c(nnc4ccccc43)c2=O)cc1` [Example 273], for which the concentration giving a half-maximal response (EC50) was over 10 µM.

For `CSCCCNC(=O)c1ccc(-n2[nH]c3c(nnc4ccccc43)c2=O)cc1` [Example 274], the 50% effective concentration (EC50) is under 1 µM.

As for `CCOC(=O)C1CCCC1NC(=O)c1ccc(-n2[nH]c3c(nnc4ccccc43)c2=O)cc1` (stereo not shown) [Example 275], the EC50 lay within 1 to 10 µM.

Consider `CCC(COCc1ccccc1)NC(=O)c1ccc(-n2[nH]c3c(nnc4ccccc43)c2=O)cc1` (stereo not shown) [Example 276], for which the 50% effective concentration (EC50) lay in the range of 1 to 10 µM.

As to `O=C(NC1CCOC1=O)c1ccc(-n2[nH]c3c(nnc4ccccc43)c2=O)cc1` (stereo not shown) [Example 277], the EC50 was in the range of 1 to 10 µM.

Regarding `O=C(NC1CN2CCC1CC2)c1ccc(-n2[nH]c3c(nnc4ccccc43)c2=O)cc1` (stereo not shown) [Example 278], the half-maximal effective concentration (EC50) was under 1 µM.

Turning to `CCCCNCCNC(=O)c1ccc(-n2[nH]c3c(nnc4ccccc43)c2=O)cc1` [Example 279], the EC50 was under 1 µM.

With `CCN(CC)CCNCCNC(=O)c1ccc(-n2[nH]c3c(nnc4ccccc43)c2=O)cc1` [Example 280], the concentration for a half-maximal effect (EC50) is under 1 µM.

For the compound `O=C(NCCNCc1ccccc1)c1ccc(-n2[nH]c3c(nnc4ccccc43)c2=O)cc1` [Example 281], the concentration giving a half-maximal response (EC50) is under 1 µM.

As for `CCNC(=O)Nc1ccc(-n2[nH]c3c(nnc4ccccc43)c2=O)cc1` [Example 282], the concentration for a half-maximal effect (EC50) is under 1 µM.

As to `CC(C)=CCC/C(C)=C/CNC(=O)Nc1ccc(-n2[nH]c3c(nnc4ccccc43)c2=O)cc1` [Example 283], the concentration giving a half-maximal response (EC50) was over 10 µM.

Take `O=C(NCc1cccc(F)c1)Nc1ccc(-n2[nH]c3c(nnc4ccccc43)c2=O)cc1` [Example 284]: the EC50 was over 10 µM.

For `O=C(NCCc1cnc[nH]1)Nc1ccc(-n2[nH]c3c(nnc4ccccc43)c2=O)cc1` [Example 285], the half-maximal effective concentration (EC50) was under 1 µM.

For the compound `O=C(NCc1ccc2c(c1)OCO2)Nc1ccc(-n2[nH]c3c(nnc4ccccc43)c2=O)cc1` [Example 286], the half-maximal effective concentration (EC50) is over 10 µM.

For `O=C(NCCN1CCNC1=O)Nc1ccc(-n2[nH]c3c(nnc4ccccc43)c2=O)cc1` [Example 287], the EC50 is under 1 µM.

With `O=C(NCCc1cccs1)Nc1ccc(-n2[nH]c3c(nnc4ccccc43)c2=O)cc1` [Example 289], the 50% effective concentration (EC50) is 1 to 10 µM.

As to `O=C(NCC1CCNCC1)Nc1ccc(-n2[nH]c3c(nnc4ccccc43)c2=O)cc1` [Example 290], the concentration for a half-maximal effect (EC50) was under 1 µM.

For `O=C(NCCCc1ccccc1)Nc1ccc(-n2[nH]c3c(nnc4ccccc43)c2=O)cc1` [Example 291], the EC50 was over 10 µM.

`O=C(Nc1ccc(-n2[nH]c3c(nnc4ccccc43)c2=O)cc1)NC1CCCC1OCc1ccccc1` (stereo not shown) [Example 292]: the EC50 was over 10 µM.

On to `O=C(Nc1ccc(-n2[nH]c3c(nnc4ccccc43)c2=O)cc1)Nc1nc2ccccc2s1` [Example 293], for which the concentration giving a half-maximal response (EC50) is over 10 µM.

For the compound `CC(C)(C)OC(=O)N1CCN(CCNC(=O)Nc2ccc(-n3[nH]c4c(nnc5ccccc54)c3=O)cc2)CC1` [Example 294], the EC50 was in the range of 1 to 10 µM.

Regarding `O=C(NCc1ccc([N+](=O)[O-])cc1)Nc1ccc(-n2[nH]c3c(nnc4ccccc43)c2=O)cc1` [Example 296], the EC50 is over 10 µM.

With `O=C(NCCCN1CCCC1=O)Nc1ccc(-n2[nH]c3c(nnc4ccccc43)c2=O)cc1` [Example 297], the concentration giving a half-maximal response (EC50) is 1 to 10 µM.

In the case of `O=C(NCCCn1ccnc1)Nc1ccc(-n2[nH]c3c(nnc4ccccc43)c2=O)cc1` [Example 298], the EC50 was under 1 µM.

In the case of `O=C(Nc1ccc(-n2[nH]c3c(nnc4ccccc43)c2=O)cc1)NC1CCCCCC1` [Example 299], the concentration giving a half-maximal response (EC50) is over 10 µM.

For the compound `O=C(NCCN1CCNCC1)Nc1ccc(-n2[nH]c3c(nnc4ccccc43)c2=O)cc1` [Example 300], the EC50 was under 1 µM.

For the compound `CC1(C)CC(NC(=O)Nc2ccc(-n3[nH]c4c(nnc5ccccc54)c3=O)cc2)CC(C)(C)N1` [Example 301], the concentration giving a half-maximal response (EC50) was under 1 µM.

For `O=C(NCCNc1ccc([N+](=O)[O-])cn1)Nc1ccc(-n2[nH]c3c(nnc4ccccc43)c2=O)cc1` [Example 302], the EC50 is over 10 µM.

With `CCOC(=O)N1CCC(NC(=O)Nc2ccc(-n3[nH]c4c(nnc5ccccc54)c3=O)cc2)CC1` [Example 303], the concentration giving a half-maximal response (EC50) was over 10 µM.

For the compound `CC(CCc1ccccc1)NC(=O)Nc1ccc(-n2[nH]c3c(nnc4ccccc43)c2=O)cc1` (stereo not shown) [Example 304], the EC50 was over 10 µM.

Consider `COC(CNC(=O)Nc1ccc(-n2[nH]c3c(nnc4ccccc43)c2=O)cc1)OC` [Example 306], for which the EC50 is under 1 µM.

As for `CCOC(CNC(=O)Nc1ccc(-n2[nH]c3c(nnc4ccccc43)c2=O)cc1)OCC` [Example 307], the EC50 fell in the range of 1 to 10 µM.

Regarding `CCC(C)CNC(=O)Nc1ccc(-n2[nH]c3c(nnc4ccccc43)c2=O)cc1` (stereo not shown) [Example 308], the half-maximal effective concentration (EC50) was in the range of 1 to 10 µM.

As to `CCC(C)NC(=O)Nc1ccc(-n2[nH]c3c(nnc4ccccc43)c2=O)cc1` (stereo not shown) [Example 309], the EC50 lay within 1 to 10 µM.

With `CCN1CCCC1CNC(=O)Nc1ccc(-n2[nH]c3c(nnc4ccccc43)c2=O)cc1` (stereo not shown) [Example 310], the EC50 is under 1 µM.

With `O=C(NCC(F)F)c1ccc(-n2[nH]c3c(nnc4ccccc43)c2=O)cc1` [Example 311], the 50% effective concentration (EC50) is under 1 µM.

Take `O=C(NCCC(F)(F)F)c1ccc(-n2[nH]c3c(nnc4ccccc43)c2=O)cc1` [Example 312]: the EC50 was under 1 µM.

For the compound `O=C(NC1C2CC3CC(C2)CC1C3)c1ccc(-n2[nH]c3c(nnc4ccccc43)c2=O)cc1` (stereo not shown) [Example 313], the EC50 was 1 to 10 µM.

On to `C#CC1(NC(=O)c2ccc(-n3[nH]c4c(nnc5ccccc54)c3=O)cc2)CCCCC1` [Example 314], for which the 50% effective concentration (EC50) was under 1 µM.

For `O=C(NC1CC1c1ccccc1)c1ccc(-n2[nH]c3c(nnc4ccccc43)c2=O)cc1` (stereo not shown) [Example 315], the EC50 lay in the range of 1 to 10 µM.

For the compound `CC1CCCCC1NC(=O)c1ccc(-n2[nH]c3c(nnc4ccccc43)c2=O)cc1` (stereo not shown) [Example 316], the EC50 is 1 to 10 µM.

Turning to `CC1CCCC(NC(=O)c2ccc(-n3[nH]c4c(nnc5ccccc54)c3=O)cc2)C1C` (stereo not shown) [Example 317], the EC50 was 1 to 10 µM.

For the compound `CC12CCC(C1)C(C)(C)C2NC(=O)c1ccc(-n2[nH]c3c(nnc4ccccc43)c2=O)cc1` (stereo not shown) [Example 318], the EC50 is under 1 µM.

In the case of `CC(C)(C)NC(=O)c1ccc(-n2[nH]c3c(nnc4ccccc43)c2=O)cc1` [Example 319], the EC50 was under 1 µM.

For the compound `C[Si](C)(C)CNC(=O)c1ccc(-n2[nH]c3c(nnc4ccccc43)c2=O)cc1` [Example 320], the EC50 is over 10 µM.

On to `CCCC(C)NC(=O)c1ccc(-n2[nH]c3c(nnc4ccccc43)c2=O)cc1` (stereo not shown) [Example 321], for which the EC50 is under 1 µM.

Take `CCCCC(C)NC(=O)c1ccc(-n2[nH]c3c(nnc4ccccc43)c2=O)cc1` (stereo not shown) [Example 322]: the 50% effective concentration (EC50) is under 1 µM.
